From ChEMBL document CHEMBL1154744, “HIV-1 protease inhibitors with a transition-state mimic comprising a tertiary alcohol: improved antiviral activity in cells” (J Med Chem, 2010)

Tests used:
[1] = system: Human immunodeficiency virus 1; test: Antiviral activity against HIV1 infected in human MT4 cells assessed as inhibition of virus-induced cytopathogenicity after 6 days by XTT assay; type: functional, organism-based; conditions: Human immunodeficiency virus 1, MT4, 144 h
[2] = Cytotoxicity against human MT4 cells assessed as decrease in cell proliferation after 5 days by XTT assay; type: cell-based
Protease = Protease (Human immunodeficiency virus 1, UniProt Q9YQ12); test: Inhibition of HIV1 protease expressed in Escherichia coli by fluorometric assay
[3] = Metabolic stability in liver microsomes assessed as intrinsic clearance; type: ADME, Microsome
[4] = Apparent permeability across human Caco-2 cells; type: ADME, cell-based
[5] = system: Human immunodeficiency virus 1; test: Antiviral activity against HIV1 with protease G48V, L90M mutant by cell free assay; type: functional, organism-based
[6] = system: Human immunodeficiency virus 1; test: Antiviral activity against […] HIV1 with protease A71V, I84V L90M mutant by cell free assay; type: functional, organism-based
[7] = system: Human immunodeficiency virus 1; test: Antiviral activity against HIV1 with protease V32I, M46I A71V, V82A mutant by cell free assay; type: functional, organism-based
[8] = system: Human immunodeficiency virus 1; test: Antiviral activity against HIV1 with protease V32I, M46I V82A mutant by cell free assay; type: functional, organism-based
[9] = system: Human immunodeficiency virus 1; test: Antiviral activity against HIV1 with protease M46I, V82F, I84V mutant by cell free assay; type: functional, organism-based
[10] = molecular target: Human immunodeficiency virus type 1 protease (Human immunodeficiency virus 1, UniProt Q72874, I84V/L63P/V82T); test: Inhibition of HIV1 protease L63P, V82T, I84V mutant
Sequence of Human immunodeficiency virus type 1 protease (Q72874 entry or part of it I84V/L63P/V82T): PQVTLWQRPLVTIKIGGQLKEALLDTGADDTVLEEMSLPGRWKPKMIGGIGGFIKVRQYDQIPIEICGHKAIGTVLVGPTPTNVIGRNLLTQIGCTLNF

Sequence of Protease (Q9YQ12 whole entry): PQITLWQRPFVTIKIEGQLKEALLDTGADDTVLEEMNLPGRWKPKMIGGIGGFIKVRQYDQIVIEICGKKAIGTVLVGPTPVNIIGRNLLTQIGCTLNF

Ki (Protease) [nM]	SMILES	EC50 [1] [nM]	CC50 at 120 h [2] [nM]	further results
–	CC(C)CN(C[C@@H](O)[C@H](Cc1ccccc1)NC(=O)O[C@H]1CO[C@H]2OCC[C@H]21)S(=O)(=O)c1ccc(N)cc1	4	–	–
–	COC(=O)N[C@H](C(=O)N(Cc1ccc(Br)cc1)C[C@@](O)(Cc1ccccc1)C(=O)N[C@H]1c2ccccc2C[C@H]1O)C(C)(C)C	> 10000	> 10000	–
> 5000	COC(=O)N[C@H](C(=O)NN(Cc1ccccc1)C[C@](O)(Cc1ccccc1)C(=O)N[C@H]1c2ccccc2C[C@H]1O)C(C)(C)C	> 10000	–	–
–	COC(=O)N[C@H](C(=O)NN(Cc1ccc(-c2cccnc2)cc1)C[C@@](O)(Cc1ccccc1)C(=O)N[C@H]1c2ccccc2C[C@H]1O)C(C)(C)C	–	> 10000	clearance [3]: 154 µL/min/mg
> 5000	COC(=O)N[C@H](C(=O)NN(Cc1ccccc1)C[C@@](O)(Cc1ccccc1)C(=O)N[C@H]1c2ccccc2C[C@H]1O)C(C)(C)C	> 10000	–	–
–	CC(C)(C)NC(=O)[C@@H]1CN(Cc2cccnc2)CCN1C[C@@H](O)C[C@@H](Cc1ccccc1)C(=O)N[C@H]1c2ccccc2C[C@H]1O	50	–	–
> 5000	COC(=O)N[C@H](C(=O)NN(CC[C@](O)(Cc1ccccc1)C(=O)N[C@H]1c2ccccc2C[C@H]1O)Cc1ccc(Br)cc1)C(C)(C)C	> 10000	> 10000	–
2200	CNC(=O)[C@@H](NC(=O)[C@](O)(CCN(Cc1ccc(Br)cc1)NC(=O)[C@@H](NC(=O)OC)C(C)(C)C)Cc1ccccc1)C(C)(C)C	> 10000	> 10000	–
1.8	COC(=O)N[C@H](C(=O)NN(CC[C@@](O)(Cc1ccccc1)C(=O)N[C@H]1c2ccccc2C[C@H]1O)Cc1ccc(-c2ccc(NC(C)=O)cc2)cc1)C(C)(C)C	30	> 10000	–
2.9	CNC(=O)[C@@H](NC(=O)[C@@](O)(CCN(Cc1ccc(Br)cc1)NC(=O)[C@@H](NC(=O)OC)C(C)(C)C)Cc1ccccc1)C(C)C	160	> 10000	–
3.2	COCCNC(=O)[C@@H](NC(=O)[C@@](O)(CCN(Cc1ccc(Br)cc1)NC(=O)[C@@H](NC(=O)OC)C(C)(C)C)Cc1ccccc1)C(C)C	170	> 10000	–
1.7	COC(=O)N[C@H](C(=O)NN(CC[C@@](O)(Cc1ccccc1)C(=O)N[C@H]1c2ccccc2C[C@H]1O)Cc1ccc(-c2cnn(C)c2)cc1)C(C)(C)C	10	> 10000	–
8	COC(=O)N[C@H](C(=O)NN(CC[C@@](O)(Cc1ccccc1)C(=O)N[C@H]1c2ccccc2C[C@H]1O)Cc1ccc(-c2ccc3c(c2)OCO3)cc1)C(C)(C)C	3	6100	–
1.7	CNC(=O)[C@@H](NC(=O)[C@@](O)(CCN(Cc1ccc(Br)cc1)NC(=O)[C@@H](NC(=O)OC)C(C)(C)C)Cc1ccccc1)C(C)(C)C	72	> 10000	–
1240	CNC(=O)[C@@H](NC(=O)[C@](O)(CCN(Cc1ccc(Br)cc1)NC(=O)[C@@H](NC(=O)OC)C(C)(C)C)Cc1ccccc1)C(C)C	> 10000	> 10000	–
12	COC(=O)N[C@H](C(=O)NN(CC[C@@](O)(Cc1ccccc1)C(=O)N[C@H]1c2ccccc2C[C@H]1O)Cc1ccc(-c2ccccc2)cc1)C(C)(C)C	8	> 10000	–
–	COC(=O)N[C@H](C(=O)NN(CC[C@@](O)(Cc1ccccc1)C(=O)N[C@H]1c2ccccc2C[C@H]1O)Cc1ccc(-c2ccccn2)cc1)C(C)(C)C	7	> 10000	clearance [3]: 20 µL/min/mg; Papp [4]: 3.5 ×10⁻⁶ cm/s; EC50 [5]: 8 nM; EC50 [6]: 7 nM; EC50 [7]: 6 nM; EC50 [8]: 24 nM; EC50 [9]: 130 nM
2.3	COC(=O)N[C@H](C(=O)NN(CC[C@@](O)(Cc1ccccc1)C(=O)N[C@H]1c2ccccc2C[C@H]1O)Cc1ccc(-c2ccncc2)cc1)C(C)(C)C	3	> 10000	–
11	COC(=O)N[C@H](C(=O)NN(CC[C@@](O)(Cc1ccccc1)C(=O)N[C@H]1c2ccccc2C[C@H]1O)Cc1ccc(-c2cc(F)cc(F)c2)cc1)C(C)(C)C	13	> 10000	–
2.8	COC(=O)N[C@H](C(=O)NN(CC[C@@](O)(Cc1ccccc1)C(=O)N[C@H]1c2ccccc2C[C@H]1O)Cc1ccc(-c2c(C)noc2C)cc1)C(C)(C)C	5	> 10000	–
2.3	COC(=O)N[C@H](C(=O)NN(CC[C@@](O)(Cc1ccccc1)C(=O)N[C@H]1c2ccccc2C[C@H]1O)Cc1ccccc1)C(C)(C)C	190	> 10000	–
8.2	COC(=O)N[C@H](C(=O)NN(CCc1ccccc1)CC[C@@](O)(Cc1ccccc1)C(=O)N[C@H]1c2ccccc2C[C@H]1O)C(C)(C)C	6800	–	–
2750	COCCNC(=O)[C@@H](NC(=O)[C@](O)(CCN(Cc1ccc(Br)cc1)NC(=O)[C@@H](NC(=O)OC)C(C)(C)C)Cc1ccccc1)C(C)C	> 10000	> 10000	–
0.5	COC(=O)N[C@H](C(=O)N[C@@H](Cc1ccccc1)[C@@H](O)CN(Cc1ccc(-c2ccccn2)cc1)NC(=O)[C@@H](NC(=O)OC)C(C)(C)C)C(C)(C)C [ATAZANAVIR]	–	–	–
–	Cc1cccc(C)c1OCC(=O)N[C@@H](Cc1ccccc1)[C@@H](O)C[C@H](Cc1ccccc1)NC(=O)[C@H](C(C)C)N1CCCNC1=O [LOPINAVIR]	10	–	–
–	CC(C)c1nc(CN(C)C(=O)N[C@H](C(=O)N[C@@H](Cc2ccccc2)C[C@H](O)[C@H](Cc2ccccc2)NC(=O)OCc2cncs2)C(C)C)cs1 [RITONAVIR]	50	–	–

SMILES	Ki (Protease) [nM]	EC50 [1] [nM]	CC50 at 120 h [2] [nM]	further results
COC(=O)N[C@H](C(=O)NN(CC[C@@](O)(Cc1ccccc1)C(=O)N[C@H]1c2ccccc2C[C@H]1O)Cc1ccc(Br)cc1)C(C)(C)C	2.9	40	7900	clearance [3]: > 300 µL/min/mg; Papp [4]: 42 ×10⁻⁶ cm/s; EC50 [5]: 8 nM; EC50 [6]: 44 nM; EC50 [7]: 70 nM; EC50 [8]: 74 nM; EC50 [9]: 240 nM; Ki [10]: 30 nM
COC(=O)N[C@H](C(=O)NN(CC[C@@](O)(Cc1ccccc1)C(=O)N[C@H]1c2ccccc2C[C@H]1O)Cc1ccc(-c2cccnc2)cc1)C(C)(C)C	1.2	9	4900	clearance [3]: > 300 µL/min/mg; Papp [4]: 26 ×10⁻⁶ cm/s; EC50 [5]: 10 nM; EC50 [6]: 19 nM; EC50 [7]: 14 nM; EC50 [8]: 27 nM; EC50 [9]: 600 nM; Ki [10]: 16 nM
